For 27 molecules, EC50 results are on record in patent US11661431B2, “Thienopyrrole compounds” (Gilead Sciences, Inc., priority 2021, dated 2023).

The target of one assay is TLR7 (Homo sapiens (Human), UniProt Q9NYK1). Briefly: TLR7 human peripheral blood mononuclear cell (PBMC) cell-based assay (GS-986 as agonist; IL-6 and IFNα readout). To be noted: human PBMCs, TLR7 agonist GS-986 at 400 nM, 6 hours, antagonist potency; read-out: TLR-7 EC50. Here is the method: Human peripheral blood mononuclear cells (PBMCs) consist of lymphocytes, monocytes and dendritic cells that express TLR7, TLR8 and TLR9. These cells respond to TLR7, TLR8 and TLR9 ligand stimulation and produce cytokines and chemokines in vitro and in vivo. Human PBMCs are therefore suitable to be used in a cell-based assay to assess the in vitro potency of a TLR 7, 8, and/or 9 antagonist.
After counting, the cell density was adjusted to 2 million cells/ml and incubated for 1 hour at 37° C., 5% CO2 for recovery. Following the recovery, the cells were plated by adding 50 μl per well (100,000 cells) to 384-well cell culture plates (Greiner) containing 250 nl of test antagonists in 100% DMSO per well, in a 10 points dose response in quadruplicates. PBMCs were incubated in the presence of test antagonists for one hour at 37° C., 5% CO2 before being stimulated with a TLR7 or TLR9agonist. […] PBMCs were incubated in the presence of the test antagonist and the TLR7 (or TLR9) agonist for an additional 6 hours at 37° C., 5% CO2. At the end of the incubation, the cell culture plates were centrifuged at 500 g for 5 min, and the cell culture supernatant was collected. The level of cytokines (IL-6 and IFNα) in the supernatant was measured by electrochemiluminescence immunoassays (Mesoscale Discovery) following manufacturer's recommended protocols.

The next assay has as its target TLR8 (Homo sapiens (Human), UniProt Q9NR97). Briefly: TLR8 human peripheral blood mononuclear cell (PBMC) cell-based assay (Compound A as agonist; TNFα and IL12p40 readout). To be noted: human PBMCs, TLR8 agonist Compound A at 800 nM, 6 hours, antagonist potency; read-out: TLR-8 EC50. Here is the method: After counting, the cell density was adjusted to 2 million cells/ml and incubated for 1 hour at 37° C., 5% CO2 for recovery. Following the recovery, the cells were plated by adding 50 μl per well (100,000 cells) to 384-well cell culture plates (Greiner) containing 250 nl of test antagonists in 100% DMSO per well, in a 10 points dose response in quadruplicates. PBMCs were incubated in the presence of antagonists for one hour at 37° C., 5% CO2 before being stimulated with TLR8 agonist. […] PBMCs were incubated in the presence of antagonist and the TLR8 agonist for an additional 6 hours at 37° C., 5% CO2. At the end of the incubation, the cell culture plates were centrifuged at 500 g for 5 min, and the cell culture supernatant was collected. The level of cytokines (TNFα and IL12p40) in the supernatant was measured by electrochemiluminescence immunoassays (Mesoscale Discovery) following manufacturer's recommended protocols.

Each structure is given as a SMILES string.

TLR8, sequence (Q9NR97 27-1041): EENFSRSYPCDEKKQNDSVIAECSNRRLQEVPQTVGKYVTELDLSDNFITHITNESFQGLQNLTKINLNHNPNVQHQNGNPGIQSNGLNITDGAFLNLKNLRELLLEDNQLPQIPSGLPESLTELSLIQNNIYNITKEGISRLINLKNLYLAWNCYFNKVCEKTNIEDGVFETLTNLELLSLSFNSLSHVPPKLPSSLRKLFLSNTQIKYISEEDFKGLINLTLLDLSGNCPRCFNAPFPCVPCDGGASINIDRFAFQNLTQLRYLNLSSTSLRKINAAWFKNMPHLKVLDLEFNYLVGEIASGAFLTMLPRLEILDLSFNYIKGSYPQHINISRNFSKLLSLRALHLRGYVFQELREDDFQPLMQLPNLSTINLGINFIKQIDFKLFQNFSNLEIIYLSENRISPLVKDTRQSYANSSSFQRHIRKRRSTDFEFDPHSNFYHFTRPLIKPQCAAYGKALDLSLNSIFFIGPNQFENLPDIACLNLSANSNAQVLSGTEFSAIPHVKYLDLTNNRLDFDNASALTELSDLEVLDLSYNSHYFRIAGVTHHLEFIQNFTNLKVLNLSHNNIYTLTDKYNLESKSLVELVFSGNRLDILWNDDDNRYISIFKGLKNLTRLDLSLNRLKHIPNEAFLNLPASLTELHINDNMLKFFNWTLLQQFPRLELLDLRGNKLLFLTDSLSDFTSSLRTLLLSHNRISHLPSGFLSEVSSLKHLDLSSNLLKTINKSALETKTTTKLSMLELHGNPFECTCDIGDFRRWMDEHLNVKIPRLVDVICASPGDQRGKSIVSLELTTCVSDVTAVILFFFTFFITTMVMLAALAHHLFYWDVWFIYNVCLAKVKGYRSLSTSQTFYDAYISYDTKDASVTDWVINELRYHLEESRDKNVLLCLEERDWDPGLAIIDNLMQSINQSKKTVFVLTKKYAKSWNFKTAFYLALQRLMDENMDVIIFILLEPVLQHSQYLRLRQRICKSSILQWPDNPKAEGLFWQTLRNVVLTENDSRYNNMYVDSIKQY
TLR7, sequence (Q9NYK1 27-1049): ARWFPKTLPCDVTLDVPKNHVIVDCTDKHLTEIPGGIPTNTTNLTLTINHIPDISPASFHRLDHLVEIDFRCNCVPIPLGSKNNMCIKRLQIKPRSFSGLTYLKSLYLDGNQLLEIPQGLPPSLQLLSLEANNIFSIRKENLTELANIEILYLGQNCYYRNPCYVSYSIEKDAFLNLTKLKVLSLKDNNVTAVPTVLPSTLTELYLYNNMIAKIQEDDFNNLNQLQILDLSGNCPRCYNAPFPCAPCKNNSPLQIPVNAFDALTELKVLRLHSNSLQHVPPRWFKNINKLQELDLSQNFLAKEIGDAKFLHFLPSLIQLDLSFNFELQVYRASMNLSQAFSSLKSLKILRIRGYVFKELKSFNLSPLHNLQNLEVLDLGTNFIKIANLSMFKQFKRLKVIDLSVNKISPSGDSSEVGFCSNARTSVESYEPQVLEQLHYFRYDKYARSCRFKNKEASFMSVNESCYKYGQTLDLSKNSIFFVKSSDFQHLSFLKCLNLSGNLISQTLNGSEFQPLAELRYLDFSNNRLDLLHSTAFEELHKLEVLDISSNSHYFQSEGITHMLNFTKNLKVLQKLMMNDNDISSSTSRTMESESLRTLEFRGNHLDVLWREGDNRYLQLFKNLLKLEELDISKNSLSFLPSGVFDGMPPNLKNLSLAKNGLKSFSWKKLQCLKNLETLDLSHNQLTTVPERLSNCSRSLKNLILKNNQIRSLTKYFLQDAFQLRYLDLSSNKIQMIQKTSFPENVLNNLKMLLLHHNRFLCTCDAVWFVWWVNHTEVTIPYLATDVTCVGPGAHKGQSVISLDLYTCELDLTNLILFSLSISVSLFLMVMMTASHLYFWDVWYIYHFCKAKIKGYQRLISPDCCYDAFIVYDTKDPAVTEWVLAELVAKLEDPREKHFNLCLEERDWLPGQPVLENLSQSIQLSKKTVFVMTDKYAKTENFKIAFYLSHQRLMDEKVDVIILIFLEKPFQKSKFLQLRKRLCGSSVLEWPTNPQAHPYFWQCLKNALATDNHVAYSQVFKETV

One may read the EC50 as the concentration at which the effect is half-maximal. Turning to `Cc1c(-c2[nH]c3sc(C4CCC(N5CC6(CCNC6=O)C5)CC4)c(C)c3c2C(C)C)cn2ncnc2c1C` (single isomer, unassigned) [Example 305, 2-[4-[5-(7,8-dimethyl-[1,2,4]triazolo[1,5-a]pyridin-6-yl)-4-isopropyl-3-methyl-6H-thieno[2,3-b]pyrrol-2-yl]cyclohexyl]-2,6-diazaspiro[3.4]octan-5-one], the figures for the EC50 on TLR7 and on TLR8 were 0.78 nM and 4.44 nM, respectively.
On the same counts, the results for `Cc1c(-c2[nH]c3sc(C4CCC(N5CC6(CCNC6=O)C5)CC4)c(C)c3c2C(C)C)cn2ncnc2c1C` (single isomer, unassigned) [Example 306, 2-[4-[5-(7,8-dimethyl-[1,2,4]triazolo[1,5-a]pyridin-6-yl)-4-isopropyl-3-methyl-6H-thieno[2,3-b]pyrrol-2-yl]cyclohexyl]-2,6-diazaspiro[3.4]octan-5-one] are < 0.05 nM and 0.49 nM.
On the same counts, the results for `Cc1c(-c2[nH]c3sc(C4CC5(CCN(CCS(C)(=O)=O)C5)C4)c(C)c3c2C(C)C)cn2ncnc2c1C` (single isomer, unassigned) [Example 313, 5-(7,8-dimethyl-[1,2,4]triazolo[1,5-a]pyridin-6-yl)-4-isopropyl-3-methyl-2-(6-(2-(methylsulfonyl)ethyl)-6-azaspiro[3.4]octan-2-yl)-6H-thieno[2,3-b]pyrrole] are 2.51 nM and 1.19 nM.
On the same counts, the results for `Cc1c(-c2[nH]c3sc(C4CC5(CCN(CCS(C)(=O)=O)C5)C4)c(C)c3c2C(C)C)cn2ncnc2c1C` (single isomer, unassigned) [Example 314, 5-(7,8-dimethyl-[1,2,4]triazolo[1,5-a]pyridin-6-yl)-4-isopropyl-3-methyl-2-(6-(2-(methylsulfonyl)ethyl)-6-azaspiro[3.4]octan-2-yl)-6H-thieno[2,3-b]pyrrole] are 10 nM and 1.22 nM.
In the case of `Cc1c(-c2[nH]c3sc(C4CCC45CN(CC(N)=O)C5)c(C)c3c2C(C)C)cn2ncnc2c1C` (single isomer, unassigned) [Example 315, 2-(5-(5-(7,8-dimethyl-[1,2,4]triazolo[1,5-a]pyridin-6-yl)-4 isopropyl-3-methyl-6H-thieno[2,3-b]pyrrol-2-yl)-2-azaspiro[3.3]heptan-2-yl)acetamide], the EC50 turned out to be 28.2 nM at TLR7 and 32.4 nM on TLR8.
`Cc1c(-c2[nH]c3sc(C4CCC45CN(CC(N)=O)C5)c(C)c3c2C(C)C)cn2ncnc2c1C` (single isomer, unassigned) [Example 316, 2-(5-(5-(7,8-dimethyl-[1,2,4]triazolo[1,5-a]pyridin-6-yl)-4-isopropyl-3-methyl-6H-thieno[2,3-b]pyrrol-2-yl)-2-azaspiro[3.3]heptan-2-yl)acetamide]: the EC50 was 47.3 nM at TLR7 and 108 nM on TLR8.
Take `Cc1cc(-c2[nH]c3sc(C(=O)N(C)C4CCNCC4)cc3c2C(C)C)cn2ncnc12` [Example 1, 4-isopropyl-N-methyl-5-(8-methyl-[1,2,4]triazolo[1,5-a]pyridin-6-yl)-N-(piperidin-4-yl)-6H-thieno[2,3-b]pyrrole-2-carboxamide]: the EC50 at TLR7 is 0.56 nM; on TLR8, 8.93 nM.
On to `Cc1cc(-c2[nH]c3sc(C(=O)N4CCNCC4)cc3c2C(C)C)cn2ncnc12` [Example 2], for which the EC50 on TLR7 came to 1.04 nM; on TLR8 it was 5.79 nM.
The matching figures for `Cc1cc(-c2[nH]c3sc(C(=O)N(C)[C@H]4CCNC4)cc3c2C(C)C)cn2ncnc12` [Example 3]: 0.27 nM and 9.95 nM.
On to `Cc1cc(-c2[nH]c3sc(C(=O)N(C)C4CCN(CCO)CC4)cc3c2C(C)C)cn2ncnc12` [Example 5], for which the EC50 on TLR7 amounted to 0.5 nM; on TLR8, 5.96 nM.
Take `Cc1cc(-c2[nH]c3sc(S(=O)(=O)N4CCNCC4)cc3c2C(C)C)cn2ncnc12` [Example 6, 4-Isopropyl-5-(8-methyl-[1,2,4]triazolo[1,5-a]pyridin-6-yl)-2-(piperazin-1-ylsulfonyl)-6H-thieno[2,3-b]pyrrole]: the concentration giving a half-maximal response (EC50) was determined as 21.5 nM at TLR7 and 84.6 nM on TLR8.
For the molecule `Cc1c(C(=O)N(C)C2CCN(CCO)CC2)sc2[nH]c(-c3cc(C)c4ncnn4c3)c(C(C)C)c12` [Example 7, N-(1-(2-hydroxyethyl)piperidin-4-yl)-4-isopropyl-N,3-dimethyl-5-(8-methyl-[1,2,4]triazolo[1,5-a]pyridin-6-yl)-6H-thieno[2,3-b]pyrrole-2-carboxamide], the EC50 was 0.14 nM at TLR7 and 3.71 nM at TLR8.
Take `Cc1c(C2CCNCC2)sc2[nH]c(-c3cc(C)c4ncnn4c3)c(C(C)C)c12` [Example 8, 4-Isopropyl-3-methyl-5-(8-methyl-[1,2,4]triazolo[1,5-a]pyridin-6-yl)-2-(piperidin-4-yl)-6H-thieno[2,3-b]pyrrole]: the EC50 at TLR7 worked out at 0.08 nM; at TLR8, 4.92 nM.
Take `Cc1c(C2CCN(CC(N)=O)CC2)sc2[nH]c(-c3cc(C)c4ncnn4c3)c(C(C)C)c12` [Example 9, 2-(4-(4-isopropyl-3-methyl-5-(8-methyl-[1,2,4]triazolo[1,5-a]pyridin-6-yl)-6H-thieno[2,3-b]pyrrol-2-yl)piperidin-1-yl)acetamide]: the EC50 amounted to 0.64 nM on TLR7 and 17.1 nM on TLR8.
Turning to `Cc1c(C2CCN(C(=O)CN(C)C)CC2)sc2[nH]c(-c3cc(C)c4ncnn4c3)c(C(C)C)c12` [Example 10, 2-(dimethylamino)-1-(4-(4-isopropyl-3-methyl-5-(8-methyl-[1,2,4]triazolo[1,5-a]pyridin-6-yl)-6H-thieno[2,3-b]pyrrol-2-yl)piperidin-1-yl)ethan-1-one], the EC50 on TLR7 stood at 0.18 nM; at TLR8 it was 9.29 nM.
As to `Cc1c(C2CCN(CC3(C)COC3)CC2)sc2[nH]c(-c3cc(C)c4ncnn4c3)c(C(C)C)c12` [Example 11], the EC50 is 2.47 nM on TLR7 and 14.3 nM on TLR8.
As to `Cc1c(C2CCN(CCO)CC2)sc2[nH]c(-c3cc(C)c4ncnn4c3)c(C(C)C)c12` [Example 13, 2-(4-(4-isopropyl-3-methyl-5-(8-methyl-[1,2,4]triazolo[1,5-a]pyridin-6-yl)-6H-thieno[2,3-b]pyrrol-2-yl)piperidin-1-yl)ethan-1-ol], the EC50 on TLR7 was 1.27 nM; at TLR8 it was 7.11 nM.
On the same counts, the results for `Cc1c(C2CCN(C(=O)[C@@H]3CCCN3)CC2)sc2[nH]c(-c3cc(C)c4ncnn4c3)c(C(C)C)c12` [Example 14] are 0.21 nM and 13.8 nM.
Take `Cc1c(C2CCN(C(=O)[C@H]3CCCN3)CC2)sc2[nH]c(-c3cc(C)c4ncnn4c3)c(C(C)C)c12` [Example 15]: the EC50 was determined as 0.12 nM at TLR7 and 13.4 nM at TLR8.
On to `Cc1c(C2CCN(C(=O)C3CNC3)CC2)sc2[nH]c(-c3cc(C)c4ncnn4c3)c(C(C)C)c12` [Example 16], for which the values for the EC50 at TLR7 and at TLR8 were 1.63 nM and 46.1 nM, respectively.
As to `Cc1c(C2CCN(C(=O)[C@H]3CCCN3C)CC2)sc2[nH]c(-c3cc(C)c4ncnn4c3)c(C(C)C)c12` [Example 18], the EC50 on TLR7 was 0.05 nM; on TLR8 it was 10.9 nM.
Turning to `Cc1c(C2CCN(C(=O)[C@@H]3CCCN3C)CC2)sc2[nH]c(-c3cc(C)c4ncnn4c3)c(C(C)C)c12` [Example 19], the EC50 at TLR7 was 0.43 nM; on TLR8, 7.76 nM.
As to `Cc1c(-c2ccc(N3CCNCC3)nc2)sc2[nH]c(-c3cc(C)c4ncnn4c3)c(C(C)C)c12` [Example 20, 4-isopropyl-3-methyl-5-(8-methyl-[1,2,4]triazolo[1,5-a]pyridin-6-yl)-2-(6-(piperazin-1-yl)pyridin-3-yl)-6H-thieno[2,3-b]pyrrole], the EC50 on TLR7 amounted to 0.28 nM; on TLR8, 12 nM.
For the molecule `Cc1c(-c2cnc3c(c2)CNCC3)sc2[nH]c(-c3cc(C)c4ncnn4c3)c(C(C)C)c12` [Example 21], the EC50 on TLR7 amounted to 1.08 nM; at TLR8, 1.25 nM.
As for `Cc1c(-c2ccc3[nH]c([C@H]4N[C@@H]5CC[C@H]4C5)nc3c2)sc2[nH]c(-c3cc(C)c4ncnn4c3)c(C(C)C)c12` [Example 22], the figures for the EC50 at TLR7 and at TLR8 were 1.27 nM and 26.1 nM, respectively.
The matching figures for `Cc1c(-c2ccc(N3CCNCC3)cc2)sc2[nH]c(-c3cc(C)c4ncnn4c3)c(C(C)C)c12` [Example 23]: 0.56 nM and 16.1 nM.
On to `Cc1c(C2CCC3(CC2)CNC3)sc2[nH]c(-c3cc(C)c4ncnn4c3)c(C(C)C)c12` [Example 24], for which the EC50 is 0.29 nM on TLR7 and 8.98 nM on TLR8.
